# BindingDB's records for doi:10.1016/j.chembiol.2004.11.007 (University of Sheffield, 2005)
# Biological target: Calmodulin-1 (Homo sapiens, UniProt P0DP23)
# Assay: Fluorescence spectroscopy
# Description: Experiments were conducted with HITACHI-4500 and Shimadzu RF-5301 fluorescence spectrophotometer.
row,Kd [µM],Structure (SMILES)
1,0.07,O=S(=O)(Nc1ccc(NS(=O)(=O)c2cccc3ccccc23)cc1)c1cccc2ccccc12 [BN1]
2,0.01,O=S(=O)(Nc1cccc(NS(=O)(=O)c2cccc3ccccc23)c1)c1cccc2ccccc12 [BN2]
3,10,COC(=O)[C@@H](CC(=O)c1cccc(C(=O)C[C@@H](Cc2c[nH]c3ccccc23)C(=O)OC)c1)Cc1c[nH]c2ccccc12 [BT1]
4,9,COC(=O)[C@@H](CC(=O)Cc1ccc(/C=C/c2ccc(CC(=O)C[C@@H](Cc3c[nH]c4ccccc34)C(=O)OC)cc2)cc1)Cc1c[nH]c2ccccc12 [BT2]
